Assays:
wild oat = experiment: Test B pre/postemergence wild oat; format: in vivo, Avena fatua
How it was run: (§1)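 Test chemicals in a non-phytotoxic solvent mixture with surfactant were sprayed preemergence onto planted seeds and postemergence onto plants 2 to 18 cm tall (1- to 4-leaf stage). After twelve to sixteen days in a greenhouse, injury was visually rated against untreated controls from 0 (no effect) to 10 (complete control).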

corn = experiment: Test B pre/postemergence corn; format: in vivo, Zea mays
How it was run: as §1

morningglory = experiment: Test B pre/postemergence morningglory; format: in vivo, Ipomoea hederacea
How it was run: as §1

soybean = experiment: Test B pre/postemergence soybean; format: in vivo, Glycine max
How it was run: as §1

rape = experiment: Test B pre/postemergence rape; format: in vivo, Brassica napus
How it was run: as §1

giant foxtail = experiment: Test B pre/postemergence giant foxtail; format: in vivo, Setaria faberii
How it was run: as §1

duck salad = experiment: Test B flood test duck salad; format: in vivo, Heteranthera limosa
How it was run: (§2)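 Flood test on plants grown to the 2-leaf stage; treated plants kept in greenhouse twelve to sixteen days, then visually rated against controls on a 0 (no effect) to 10 (complete control) scale.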

purple nutsedge = experiment: Test B pre/postemergence purple nutsedge; format: in vivo, Cyperus rotundus
How it was run: as §1

smallflower flatsedge = experiment: Test B flood test smallflower flatsedge; format: in vivo, Cyperus difformis
How it was run: as §2

blackgrass = experiment: Test B pre/postemergence blackgrass; format: in vivo, Alopecurus myosuroides
How it was run: as §1

crabgrass = experiment: Test B pre/postemergence crabgrass; format: in vivo, Digitaria sanguinalis
How it was run: as §1

sugar beet = experiment: Test B pre/postemergence sugar beet; format: in vivo, Beta vulgaris
How it was run: as §1

cocklebur = experiment: Test B pre/postemergence cocklebur; format: in vivo, Xanthium strumarium
How it was run: as §1

wheat = experiment: Test B pre/postemergence wheat; format: in vivo, Triticum aestivum
How it was run: as §1

velvetleaf = experiment: Test B pre/postemergence velvetleaf; format: in vivo, Abutilon theophrasti
How it was run: as §1

surinam grass = experiment: Test B pre/postemergence surinam grass; format: in vivo, Brachiaria decumbens
How it was run: as §1

[1] = Postemergence, Rate 250 g/ha, scale 0 to 10
[2] = Postemergence, Rate 500 g/ha, scale of 0 to 10 where 0 is no effect and 10 is complete control
[3] = Preemergence, Rate 62 g/ha, scale 0 to 10 (0 no effect, 10 complete control)
[4] = Preemergence, Rate 125 g/ha, scale of 0 to 10 where 0 is no effect and 10 is complete control
[5] = Preemergence, Rate 250 g/ha, scale 0 to 10, 0 is no effect, 10 is complete control
[6] = Preemergence, Rate 500 g/ha, scale 0 to 10, 0 is no effect, 10 is complete control
[7] = Rate 125 g/ha, Postemergence, scale 0 to 10, 0 is no effect, 10 is complete control
[8] = Rate 62 g/ha, Postemergence, scale of 0 to 10 where 0 is no effect and 10 is complete control
[9] = Postemergence block (flood test species), Rate 250 g/ha, scale 0 to 10
[10] = Postemergence section (flood test species), Rate 500 g/ha, scale of 0 to 10 where 0 is no effect and 10 is complete control
[11] = Rate 125 g/ha, Postemergence section (flood test species), scale 0 to 10, 0 is no effect, 10 is complete control

CCN(C(=O)n1oc(=O)n(C2CCCCCC2)c1=O)C1CCCCC1 [Compound 429]
Wild oats plant response rating (wild oat; [1]): 0 | Wild oats plant response rating (wild oat; [2]): 0 | Plant response rating, Wild oats (wild oat; [3]): 0 | Plant response rating, Wild oats (wild oat; [4]): 0 | Wild oats plant response rating (wild oat; [5]): 0 | Wild oats plant response rating (wild oat; [6]): 0 | Wild oats plant response rating (wild oat; [7]): 0 | Corn plant response rating (corn; [1]): 0 | Corn plant response rating (corn; [2]): 0 | Plant response rating, Corn (corn; [3]): 0 | Plant response rating, Corn (corn; [4]): 0 | Corn plant response rating (corn; [5]): 0 | Corn plant response rating (corn; [6]): 0 | Corn plant response rating (corn; [8]): 0 | Corn plant response rating (corn; [7]): 0 | Morningglory plant response rating (morningglory; [1]): 2 | Morningglory plant response rating (morningglory; [2]): 3 | Plant response rating, Morningglory (morningglory; [3]): 0 | Plant response rating, Morningglory (morningglory; [4]): 0 | Morningglory plant response rating (morningglory; [5]): 0 | Morningglory plant response rating (morningglory; [6]): 0 | Morningglory plant response rating (morningglory; [7]): 1 | Soybean plant response rating (soybean; [1]): 2 | Soybean plant response rating (soybean; [2]): 3 | Plant response rating, Soybean (soybean; [3]): 0 | Plant response rating, Soybean (soybean; [4]): 0 | Soybean plant response rating (soybean; [5]): 0 | Soybean plant response rating (soybean; [6]): 0 | Soybean plant response rating (soybean; [7]): 2 | Rape plant response rating (rape; [1]): 0 | Rape plant response rating (rape; [2]): 0 | Plant response rating, Rape (rape; [3]): 0 | Plant response rating, Rape (rape; [4]): 0 | Rape plant response rating (rape; [5]): 0 | Rape plant response rating (rape; [6]): 0 | Rape plant response rating (rape; [7]): 0 | Giant foxtail plant response rating (giant foxtail; [1]): 2 | Giant foxtail plant response rating (giant foxtail; [2]): 4 | Plant response rating, Giant foxtail (giant foxtail; [3]): 3 | Plant response rating, Giant foxtail (giant foxtail; [4]): 10 | Giant foxtail plant response rating (giant foxtail; [5]): 10 | Giant foxtail plant response rating (giant foxtail; [6]): 10 | Giant foxtail plant response rating (giant foxtail; [8]): 0 | Giant foxtail plant response rating (giant foxtail; [7]): 1 | Ducksalad plant response rating (duck salad; [9]): 6 | Ducksalad plant response rating (duck salad; [10]): 6 | Ducksalad plant response rating (duck salad; Rate 62 g/ha, Postemergence (flood test species), scale of 0 to 10 where 0 is no effect and 10 is complete control): 0 | Ducksalad plant response rating (duck salad; [11]): 2 | Nutsedge plant response rating (purple nutsedge; [1]): 0 | Nutsedge plant response rating (purple nutsedge; [2]): 0 | Plant response rating, Nutsedge (purple nutsedge; [3]): 0 | Plant response rating, Nutsedge (purple nutsedge; [4]): 0 | Nutsedge plant response rating (purple nutsedge; [5]): 0 | Nutsedge plant response rating (purple nutsedge; [6]): 0 | Nutsedge plant response rating (purple nutsedge; [7]): 0 | S. Flatsedge plant response rating (smallflower flatsedge; [9]): 3 | S. Flatsedge plant response rating (smallflower flatsedge; [10]): 9 | S. Flatsedge plant response rating (smallflower flatsedge; [11]): 0 | Blackgrass plant response rating (blackgrass; [1]): 3 | Blackgrass plant response rating (blackgrass; [2]): 3 | Plant response rating, Blackgrass (blackgrass; [3]): 0 | Plant response rating, Blackgrass (blackgrass; [4]): 0 | Blackgrass plant response rating (blackgrass; [5]): 0 | Blackgrass plant response rating (blackgrass; [6]): 3 | Blackgrass plant response rating (blackgrass; [8]): 0 | Blackgrass plant response rating (blackgrass; [7]): 2 | Crabgrass plant response rating (crabgrass; [1]): 2 | Crabgrass plant response rating (crabgrass; [2]): 3 | Plant response rating, Crabgrass (crabgrass; [3]): 7 | Plant response rating, Crabgrass (crabgrass; [4]): 10 | Crabgrass plant response rating (crabgrass; [5]): 10 | Crabgrass plant response rating (crabgrass; [6]): 10 | Crabgrass plant response rating (crabgrass; [8]): 0 | Crabgrass plant response rating (crabgrass; [7]): 1 | Sugarbeets plant response rating (sugar beet; [1]): 0 | Sugarbeets plant response rating (sugar beet; [2]): 0 | Plant response rating, Sugarbeets (sugar beet; [3]): 0 | Plant response rating, Sugarbeets (sugar beet; [4]): 0 | Sugarbeets plant response rating (sugar beet; [5]): 0 | Sugarbeets plant response rating (sugar beet; [6]): 0 | Sugarbeets plant response rating (sugar beet; [7]): 0 | Cocklebur plant response rating (cocklebur; [1]): 0 | Cocklebur plant response rating (cocklebur; [2]): 0 | Plant response rating, Cocklebur (cocklebur; [3]): 0 | Plant response rating, Cocklebur (cocklebur; [4]): 0 | Cocklebur plant response rating (cocklebur; [5]): 0 | Cocklebur plant response rating (cocklebur; [6]): 0 | Cocklebur plant response rating (cocklebur; [8]): 0 | Cocklebur plant response rating (cocklebur; [7]): 0 | Wheat plant response rating (wheat; [1]): 0 | Wheat plant response rating (wheat; [2]): 0 | Plant response rating, Wheat (wheat; [3]): 0 | Plant response rating, Wheat (wheat; [4]): 0 | Wheat plant response rating (wheat; [5]): 0 | Wheat plant response rating (wheat; [6]): 0 | Wheat plant response rating (wheat; [7]): 0 | Velvetleaf plant response rating (velvetleaf; [1]): 2 | Velvetleaf plant response rating (velvetleaf; [2]): 2 | Plant response rating, Velvetleaf (velvetleaf; [3]): 0 | Plant response rating, Velvetleaf (velvetleaf; [4]): 0 | Velvetleaf plant response rating (velvetleaf; [5]): 0 | Velvetleaf plant response rating (velvetleaf; [6]): 0 | Velvetleaf plant response rating (velvetleaf; [7]): 0 | B. signalgrass plant response rating (surinam grass; Postemergence, Rate 250 g/ha, scale 0 to 10, 0 no effect, 10 complete control): 0 | B. signalgrass plant response rating (surinam grass; [2]): 0 | Plant response rating, B. signalgrass (surinam grass; [3]): 0 | Plant response rating, B. signalgrass (surinam grass; [4]): 0 | B. signalgrass plant response rating (surinam grass; [5]): 0 | B. signalgrass plant response rating (surinam grass; [6]): 4 | B. signalgrass plant response rating (surinam grass; [8]): 0 | B. signalgrass plant response rating (surinam grass; [7]): 0

Source: patent publication US6737383B1, “Herbicidal oxadiazolidines” (priority 1999, dated 2004)
